Assay [1] addresses T1, hENPP2 (UniProtKB/SwissProt Sequence ref Q13822) (Homo sapiens (Human), UniProt Q13822). The experiment in a line: FS3 hENPP2 assay (fluorogenic substrate FS-3). Type of assay: biochemical. The note with it: hENPP2, FS-3 as substrate. How it is done:
Compound IC50 values are determined in a fluorescent hENPP2 (UniProtKB/SwissProt Sequence ref Q13822) biochemical assay using the fluorogenic autotaxin substrate FS-3 as substrate. FS-3 is a doubly labeled analog of LPC wherein the fluorophore is quenched through intramolecular energy transfer. Without hENPP2, the emission of the probe is quenched. If the substrate is hydrolyzed by hENPP2, the emission of the probe is not quenched anymore resulting in a fluorescence increase. Inhibition of hENPP2 by compounds will result in a decrease of the signal.
10 μL of a dilution series of compound, starting from 20 μM highest concentration, ⅕ dilution, is added to the wells. hENPP2 is used at a final concentration of 0.4 μg/mL or 0.64 μg/mL (it will be appreciated by the skilled person that the potency read out is independent of the enzyme concentration). The enzyme is diluted in 50 mM Tris-HCl pH 8.0, 250 mM NaCl, 5 mM KCl, 1 mM MgCl2, 1 mM CaCl2, 0.1% fatty acid free BSA in a total volume of 20 μL. Enzyme mixture is added to compounds and the resulting mixture is incubated for 30 min at room temperature under shaking. The reaction is started by the addition of 20 μL of 0.75 μM FS-3 diluted in the same buffer as described above and the mixture is incubated at 30° C. for 30 min. Fluorescence is read on the Envision (Excitation 485 nm, emission 520 nm).

For assay [2], the target named is T1, hENPP2. The experiment in a line: LPC hENPP2 assay (choline release, LPC as substrate). Type of assay: biochemical. In outline: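 Choline released from LPC by ENPP2 is quantified after stopping with stop-developer containing 0.6 U/mL choline oxidase, 0.6 U/mL peroxidase, 1.8 mM TOOS, 1.2 mM amino-antipyrine and 20 mM EGTA. Quinoneimine dye read at 555 nm after 30 min at room temperature.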

Broadly, the IC50 is the point on the concentration scale where inhibition reaches its midpoint.

`CCc1nc2ccc(N3CCN(CC(=O)N4CCCC4)[C@H](CO)C3)nn2c1N(C)c1nc(-c2ccc(F)cc2)cs1` [Compound 64, (S)-2-(4-(2-ethyl-3-((4-(4-fluorophenyl)thiazol-2-yl)(methyl)amino)imidazo[1,2-b]pyridazin-6-yl)-2-(hydroxymethyl)piperazin-1-yl)-1-(pyrrolidin-1-yl)ethanone]: the values for the IC50 in assay [1] and in assay [2] were 0.01 to 25 nM and 100 to 500 nM, respectively.
Taken in the same sequence, the figures for `CCc1nc2ccc(N3CCN(CC(=O)N4CCOCC4)[C@H](CO)C3)nn2c1N(C)c1nc(-c2ccc(F)cc2)cs1` [Cpd 65, (S)-2-(4-(2-ethyl-3-((4-(4-fluorophenyl)thiazol-2-yl)(methyl)amino)imidazo[1,2-b]pyridazin-6-yl)-2-(hydroxymethyl)piperazin-1-yl)-1-morpholinoethanone] were 0.01 to 25 nM and 100 to 500 nM.
For the compound `CCc1nc2ccc(N3CCC(N4CCS(=O)(=O)CC4)C3)nn2c1N(C)c1nc(-c2ccc(F)cc2)cs1` (centres unmarked) [Cpd 150, {6-[3-(1,1-Dioxo-thiomorpholin-4-yl)-pyrrolidin-1-yl]-2-ethyl-imidazo[1,2-b]pyridazin-3-yl}-[4-(4-fluoro-phenyl)-thiazol-2-yl]-methyl-amine], the IC50 in assay [1] was 0.01 to 25 nM; in assay [2] it was above 1000 nM.
As to `CCc1nc2ccc(C3CCN(CC(=O)N4CC(O)C4)CC3)nn2c1N(C)c1nccc(-c2ccc(F)cc2)n1` [Cpd 215, 2-(4-(2-ethyl-3-((4-(4-fluorophenyl)pyrimidin-2-yl)(methyl)amino)imidazo[1,2-b]pyridazin-6-yl)piperidin-1-yl)-1-(3-hydroxyazetidin-1-yl)ethanone], the IC50 lay within 0.01 to 25 nM in assay [1] and 100 to 500 nM in assay [2].
Turning to `CCc1nc2ccc(N3CCN(S(=O)(=O)CC)CC3)nn2c1N(C)c1nc(-c2ccc(F)cc2)cs1` [Cpd 71, N-(2-ethyl-6-(4-(ethylsulfonyl)piperazin-1-yl)imidazo[1,2-b]pyridazin-3-yl)-4-(4-fluorophenyl)-N-methylthiazol-2-amine], the IC50 is 0.01 to 25 nM in assay [1] and above 1000 nM in assay [2].
Taken in the same sequence, the figures for `CN(c1nc(-c2ccc(F)cc2)cs1)c1c(CO)nc2ccc(C3=CCN(S(C)(=O)=O)CC3)nn12` [Compound 195, (3-((4-(4-fluorophenyl)thiazol-2-yl)(methyl)amino)-6-(1-(methylsulfonyl)-1,2,3,6-tetrahydropyridin-4-yl)imidazo[1,2-b]pyridazin-2-yl)methanol] were 0.01 to 25 nM and above 1000 nM.
Taken in the same sequence, the figures for `CCc1nc2ccc(N3CCC(N4CCC(O)CC4)C3)nn2c1N(C)c1nc(-c2ccc(F)cc2)cs1` (centres unmarked) [Cpd 152, 1-(1-(2-ethyl-3-((4-(4-fluorophenyl)thiazol-2-yl)(methyl)amino)imidazo[1,2-b]pyridazin-6-yl)pyrrolidin-3-yl)piperidin-4-ol] were 0.01 to 25 nM and 500 to 1000 nM.
Regarding `CCc1nc2ccc(N3CCC(N)C3)nn2c1N(C)c1nc(-c2ccc(F)cc2)cs1` (centres unmarked) [Cpd 134, N-(6-(3-aminopyrrolidin-1-yl)-2-ethylimidazo[1,2-b]pyridazin-3-yl)-4-(4-fluorophenyl)-N-methylthiazol-2-amine], the 50% inhibitory concentration (IC50) was 0.01 to 25 nM in assay [1] and above 1000 nM in assay [2].
`CCc1nc2ccc(C3=CCN(C(=O)OC(C)(C)C)CC3)nn2c1N(C)c1nc(-c2ccc(F)cc2)cs1` [Compound 193, tert-butyl 4-(2-ethyl-3-((4-(4-fluorophenyl)thiazol-2-yl)(methyl)amino)imidazo[1,2-b]pyridazin-6-yl)-5,6-dihydropyridine-1(2H)-carboxylate] came in with an IC50 in assay [1] of 0.01 to 25 nM.
In assay [2], `CCc1nc2ccc(N3CCC(CO)C3)nn2c1N(C)c1nc(-c2ccc(F)cc2)c(CO)s1` (centres unmarked) [Compound 144, (1-(2-ethyl-3-((4-(4-fluorophenyl)-5-(hydroxymethyl)thiazol-2-yl)(methyl)amino)imidazo[, 2-b]pyridazin-6-yl)pyrrolidin-3-yl)methanol] showed an IC50 of 500 to 1000 nM.
Still for that read-out and setting: the result for `CCc1nc2ccc(N3CCC(N4CCCCC4)CC3)nn2c1N(C)c1nc(-c2ccc(F)cc2)cs1` [Cpd 111, N-(6-(1,4′-bipiperidin-1′-yl)-2-ethylimidazo[1,2-b]pyridazin-3-yl)-4-(4-fluorophenyl)-N-methylthiazol-2-amine] reads above 1000 nM; that for `CCc1nc2ccc(N3C[C@H]4C[C@H]3CN4C(=O)OC(C)(C)C)nn2c1N(C)c1nc(-c2ccc(F)cc2)cs1` [Cpd 74, tert-butyl-(1R,4S)-5-(2-ethyl-3-((4-(4-fluorophenyl)thiazol-2-yl)(methyl)amino)imidazo[1,2-b]pyridazin-6-yl)-2,5-diazabicyclo[2.2.1] heptane-2-carboxylate], above 1000 nM.
On the same count and under the same terms, in the case of `CCc1nc2ccc(N3CCC(C(=O)NCCO)C3)nn2c1N(C)c1nc(-c2ccc(F)cc2)cs1` (centres unmarked) [Cpd 140, 1-(2-ethyl-3-((4-(4-fluorophenyl)thiazol-2-yl)(methyl)amino)imidazo[1,2-b]pyridazin-6-yl)-N-(2-hydroxyethyl) pyrrolidine-3-carboxamide] it was above 1000 nM.
Same read-out and setting: in the case of `CCc1nc2ccc(N3CCN(CC(=O)N4C(C)CCC4C)CC3)nn2c1N(C)c1nc(-c2ccc(F)cc2)cs1` (stereo not drawn) [Cpd 32, 1-(2,5-dimethylpyrrolidin-l-yl)-2-(4-(2-ethyl-3-((4-(4-fluorophenyl)thiazol-2-yl)(methyl)amino)imidazo[1,2-b]pyridazin-6-yl)piperazin-1-yl)ethanone] it was above 1000 nM; in that of `CCc1nc2ccc(N3C[C@H](O)[C@@H](N4CCOCC4)C3)nn2c1N(C)c1nc(-c2ccc(F)cc2)c(C#N)s1` [Cpd 184], 0.01 to 100 nM.
Turning to `CCc1nc2ccc(N3CCN(CC(=O)N(C)C)CC3)nn2c1N(C)c1nc(-c2ccc(F)cc2C)cs1` [Cpd 73, 2-(4-(2-ethyl-3-((4-(4-fluoro-2-methylphenyl)thiazol-2-yl)(methyl)amino)imidazo[1,2-b]pyridazin-6-yl)piperazin-1-yl)-N,N-dimethylacetamide], the IC50 in assay [2] fell in the range of 100 to 500 nM.
In turn, `CCc1nc2ccc(N3CCC(N4CCNC(=O)C4)C3)nn2c1N(C)c1nc(-c2ccc(F)cc2)cs1` (centres unmarked) [Cpd 146, 4-(1-(2-ethyl-3-((4-(4-fluorophenyl)thiazol-2-yl)(methyl)amino)imidazo[1,2-b]pyridazin-6-yl)pyrrolidin-3-yl)piperazin-2-one] returned an IC50 in assay [2] of 500 to 1000 nM.
Take `CCc1nc2ccc(N3CCC(O)C3)nn2c1N(C)c1nc(-c2ccc(F)cc2)c(CO)s1` (centres unmarked) [Cpd 185, 1-(2-ethyl-3-((4-(4-fluorophenyl)-5-(hydroxymethyl)thiazol-2-yl)(methyl)amino)imidazo[1,2-b]pyridazin-6-yl)pyrrolidin-3-ol]: the IC50 in assay [2] is above 1000 nM.
Still for that read-out and setting: the result for `CCc1nc2ccc(N3CC(NCC(=O)NC)C3)nn2c1N(C)c1nc(-c2ccc(F)cc2)cs1` [Cpd 157, 2-(1-(2-ethyl-3-((4-(4-fluorophenyl)thiazol-2-yl)(methyl)amino)imidazo[1,2-b]pyridazin-6-yl)azetidin-3-ylamino)-N-methylacetamide] reads 500 to 1000 nM; that for `CCc1nc2ccc(N3CCC(NC(=O)C4(C)COC4)CC3)nn2c1N(C)c1nc(-c2ccc(F)cc2)cs1` [Cpd 86, N-(1-(2-ethyl-3-((4-(4-fluorophenyl)thiazol-2-yl)(methyl)amino)imidazo[1,2-b]pyridazin-6-yl)piperidin-4-yl)-3-methyloxetane-3-carboxamide], above 1000 nM.
`CCc1nc2ccc(N3CCC4(CCN(C(C)=O)C4)C3)nn2c1N(C)c1nc(-c2ccc(F)cc2)c(C#N)s1` (centres unmarked) [Cpd 167, 2-((6-(7-acetoyl-2,7-diazaspiro[4.4]nonan-2-yl)-2-ethylimidazo[1,2-b]pyridazin-3-yl)(methyl)amino)-4-(4-fluorophenyl) thiazole-5-carbonitrile]: the IC50 in assay [2] lay in the range of 0.01 to 100 nM.
Still for that read-out and setting: the result for `CCc1nc2ccc(N3CCC(NC(=O)N4CCCC4)CC3)nn2c1N(C)c1nc(-c2ccc(F)cc2)cs1` [Compound 89, N-(1-(2-ethyl-3-((4-(4-fluorophenyl)thiazol-2-yl)(methyl)amino)imidazo[1,2-b]pyridazin-6-yl)piperidin-4-yl)pyrrolidine-1-carboxamide] reads 500 to 1000 nM.
`CCc1nc2ccc(N3CC(NCC(=O)N(C)C)C3)nn2c1N(C)c1nc(-c2ccc(F)cc2)cs1` [Cpd 156, 2-(1-(2-ethyl-3-((4-(4-fluorophenyl)thiazol-2-yl)(methyl)amino)imidazo[1,2-b]pyridazin-6-yl)azetidin-3-ylamino)-N,N-dimethylacetamide]: in assay [2], the IC50 was in the range of 500 to 1000 nM.
Still for that read-out and setting: the result for `CCc1nc2ccc(N3CC[C@@H](NCC(=O)N4CC(O)C4)C3)nn2c1N(C)c1nc(-c2ccc(F)cc2)c(C#N)s1` [Cpd 176, (R)-2-((2-ethyl-6-(3-(2-(3-hydroxyazetidin-1-yl)-2-oxoethylamino)pyrrolidin-1-yl)imidazo[1,2-b]pyridazin-3-yl)(methyl)amino)-4-(4-fluorophenyl) thiazole-5-carbonitrile] reads 0.01 to 100 nM.

(Values after patent publication US9796719B2, “Compounds and pharmaceutical compositions thereof for the treatment of inflammatory disorders” (GALAPAGOS NV, priority 2013, dated 2017).)
